Square brackets hold non-standard residues; d marks the D form. Peptide text beside a SMILES is read from it. * marks the point of attachment. Fmoc = O=C(OCC1c2ccccc2-c2ccccc21)*; Aib = CC(C)(N)C(=O)O
Assay: Storage stability studies of the dipeptide TFA salt
Type: physicochemical
Protocol: Fmoc-His(Trt)-Aib-OH (1 moleq., starting material) was suspended in DCM (1.5 mL/g) and TIPS (1.7 moleq.) was added. Cooled (0-10° C.) TFA (3 mL/g) was added and the mixture was stirred at ambient temperature until the reaction was completed (High-performance liquid chromatography (HPLC) conversion). DME (1 mL/g starting material) and TBME (11 mL/g starting material) was added leading to an increase in temperature. The temperature was slowly allowed to return to room temperature (rt) resulting in precipitation of a white solid. The mixture was stirred for an additional 3 hr and filtered. The precipitate was washed twice with TBME (3 mL/g starting material) and dried overnight in vacuo affording the de-tritylated dipeptide as TFA-salt in 90% yield.

stability (storage) (freeze (<−15° C.±5° C.)): more than 24 month | stability (storage) (fridge (5° C.±3° C.)): more than 24 month | stability (storage) (room temperature (20° C.±3° C.)): more than 24 month
SMILES: CC(C)(NC(=O)[C@H](Cc1c[nH]cn1)NC(=O)OCC1c2ccccc2-c2ccccc21)C(=O)O [Example 1, 2-[(S)-2-(9H-Fluoren-9-ylmethoxycarbonylamino)-3-(1H-imidazol-4-yl)-propanoylamino]-2-methyl-propanoic Acid Trifluoracatate] (Fmoc-His-[Aib]-OH)

— patent US10954267B2, “Dipeptide comprising a non-proteogenic amino acid” (Novo Nordisk A/S, priority 2011, dated 2021)
